Assays:
PBMCs = test: PBMC assay, IL-6 release (HTRF); assay type: cell-based; settings: PBMCs from healthy donors, overnight, IL-6 induction by HTRF, average of quadruplicate
Description: Whole peripheral blood was obtained from healthy donors. PBMCs were isolated from peripheral blood by density gradient centrifugation. […] The plasma layer containing PBMCs was poured into a new tube and washed twice. Isolated PBMCs were either used fresh or thawed from previously frozen. 1×10^5 PBMCs were cultured with titrating concentrations of compounds of Formula I overnight followed by assaying for cytokines by homogeneous time resolved fluorescence (HTRF).

TLR7 = target: T1, TLR7 (Homo sapiens, UniProt Q9NYK1); test: Reporter gene assay, HEK-Blue TLR7 reporter cells (SEAP)
T1 sequence (Q9NYK1 27-1049): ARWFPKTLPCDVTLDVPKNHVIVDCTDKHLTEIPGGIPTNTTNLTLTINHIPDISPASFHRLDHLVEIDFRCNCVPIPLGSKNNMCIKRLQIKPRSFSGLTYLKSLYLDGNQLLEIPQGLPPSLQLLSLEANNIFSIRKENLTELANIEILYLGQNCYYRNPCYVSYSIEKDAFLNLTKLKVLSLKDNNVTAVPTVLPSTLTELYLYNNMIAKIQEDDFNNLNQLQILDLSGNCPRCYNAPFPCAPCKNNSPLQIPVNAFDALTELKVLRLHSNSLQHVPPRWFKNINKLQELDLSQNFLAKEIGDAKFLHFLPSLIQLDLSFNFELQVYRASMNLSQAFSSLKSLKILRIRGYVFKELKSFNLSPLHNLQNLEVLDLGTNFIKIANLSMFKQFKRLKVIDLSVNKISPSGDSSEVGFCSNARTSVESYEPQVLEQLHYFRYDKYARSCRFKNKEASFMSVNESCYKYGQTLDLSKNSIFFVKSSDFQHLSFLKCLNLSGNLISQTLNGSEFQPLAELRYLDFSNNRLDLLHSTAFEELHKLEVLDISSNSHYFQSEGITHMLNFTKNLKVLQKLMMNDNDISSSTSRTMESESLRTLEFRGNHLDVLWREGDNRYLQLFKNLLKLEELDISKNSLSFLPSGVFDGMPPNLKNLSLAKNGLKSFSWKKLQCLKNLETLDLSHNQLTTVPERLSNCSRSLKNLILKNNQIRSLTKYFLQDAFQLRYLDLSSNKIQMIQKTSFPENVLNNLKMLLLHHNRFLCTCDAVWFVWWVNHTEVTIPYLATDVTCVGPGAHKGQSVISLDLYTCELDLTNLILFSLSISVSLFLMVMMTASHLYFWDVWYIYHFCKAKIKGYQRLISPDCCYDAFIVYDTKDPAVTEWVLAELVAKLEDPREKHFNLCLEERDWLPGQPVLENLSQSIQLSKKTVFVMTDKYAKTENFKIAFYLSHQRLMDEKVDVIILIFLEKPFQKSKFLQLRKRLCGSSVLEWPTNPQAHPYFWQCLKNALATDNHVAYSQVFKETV
Description: (§1) 3×10^4 HEK-Blue™ TLR7 or 3×10^4 TLR8 reporter cells (InvivoGen, San Diego, CA) were treated with titrated (4-fold) amounts of test compound. […] Cells were incubated overnight at 37° C. and 5% CO2, then absorbance (620 and 655 nm) was read on a Synergy™ H1 microplate reader.

TLR8 = target: T2, TLR8 (Homo sapiens, UniProt Q9NR97); test: Reporter gene assay, HEK-Blue TLR8 reporter cells (SEAP)
T2 sequence (Q9NR97 27-1041): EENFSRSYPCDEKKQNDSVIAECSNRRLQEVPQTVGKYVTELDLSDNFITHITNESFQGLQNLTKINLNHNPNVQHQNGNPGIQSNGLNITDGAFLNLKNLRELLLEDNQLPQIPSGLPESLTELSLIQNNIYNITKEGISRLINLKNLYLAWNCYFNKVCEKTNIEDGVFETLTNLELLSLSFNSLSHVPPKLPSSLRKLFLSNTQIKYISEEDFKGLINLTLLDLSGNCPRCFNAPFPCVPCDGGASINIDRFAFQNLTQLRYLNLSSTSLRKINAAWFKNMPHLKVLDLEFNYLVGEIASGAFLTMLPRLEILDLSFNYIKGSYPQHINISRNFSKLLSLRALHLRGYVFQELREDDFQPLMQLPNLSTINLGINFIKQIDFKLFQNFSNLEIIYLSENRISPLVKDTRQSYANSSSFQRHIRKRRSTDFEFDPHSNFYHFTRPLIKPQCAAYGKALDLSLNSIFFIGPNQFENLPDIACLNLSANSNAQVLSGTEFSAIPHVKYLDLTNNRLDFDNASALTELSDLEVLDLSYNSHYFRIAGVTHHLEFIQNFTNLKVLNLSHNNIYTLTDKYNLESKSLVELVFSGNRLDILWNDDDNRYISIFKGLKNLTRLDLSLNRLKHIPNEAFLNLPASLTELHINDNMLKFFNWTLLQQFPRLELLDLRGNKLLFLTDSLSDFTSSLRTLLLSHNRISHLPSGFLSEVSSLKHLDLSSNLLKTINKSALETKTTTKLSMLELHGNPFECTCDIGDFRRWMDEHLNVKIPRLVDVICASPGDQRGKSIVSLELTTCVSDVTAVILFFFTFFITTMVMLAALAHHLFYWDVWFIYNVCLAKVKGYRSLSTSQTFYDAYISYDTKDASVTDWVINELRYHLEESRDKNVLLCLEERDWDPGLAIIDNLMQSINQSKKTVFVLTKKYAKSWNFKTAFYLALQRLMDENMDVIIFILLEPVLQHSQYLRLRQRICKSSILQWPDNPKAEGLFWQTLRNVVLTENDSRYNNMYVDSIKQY
Description: as §1

| EC50 (TLR7) [nM] | EC50 (TLR8) [nM] | SMILES | EC50 (PBMCs) [nM] |
| --- | --- | --- | --- |
| 106 | > 1000 | CCCCc1nc2c(N)nc3ccsc3c2n1Cc1ccc(CNc2ccc3c(c2)CCN(C(=O)OC(C)(C)C)C3)cc1 [Compound 261, tert-butyl 6-((4-((4-amino-2-butyl-1H-imidazo[4,5-d]thieno[3,2-b]pyridin-1-yl)methyl)benzyl)amino)-3,4-dihydroisoquinoline-2(1H)-carboxylate] | 602 |
| 190 | > 1000 | CCCCc1nc2c(N)nc3ccsc3c2n1Cc1nc(CNCc2ccc(CO)cc2)cs1 [Compound 237, (4-((((2-((4-amino-2-butyl-1H-imidazo[4,5-d]thieno[3,2-b]pyridin-1-yl)methyl)thiazol-4-yl)methyl)amino)methyl)phenyl)methanol] | 500 |
| 89 | > 1000 | CCCCc1nc2c(N)nc3ccsc3c2n1Cc1ccc(CNCCCCNC(=O)OCc2ccccc2)cc1 [Compound 260, benzyl (4-((4-((4-amino-2-butyl-1H-imidazo[4,5-d]thieno[3,2-b]pyridin-1-yl)methyl)benzyl)amino)butyl)carbamate] | 719 |
| 420 | > 1000 | CCCCc1nc2c(N)nc3ccsc3c2n1Cc1cccc(Cn2ccnc2)c1 [Compound 229, 1-(3-((1H-imidazol-1-yl)methyl)benzyl)-2-butyl-1H-imidazo[4,5-d]thieno[3,2-b]pyridin-4-amine] | > 1000 |
| > 1000 | > 1000 | CCCCc1nc2c(N)nc3ccsc3c2n1Cc1ccccc1CNCC(C)(C)O [Compound 225, 1-((2-((4-amino-2-butyl-1H-imidazo[4,5-d]thieno[3,2-b]pyridin-1-yl)methyl)benzyl)amino)-2-methylpropan-2-ol] | > 1000 |
| > 1000 | > 1000 | CCCCc1nc2c(N)nc3ccsc3c2n1Cc1ccccc1CNCc1cc[nH]c1 [Compound 220, 1-(2-((((1H-pyrrol-3-yl)methyl)amino)methyl)benzyl)-2-butyl-1H-imidazo[4,5-d]thieno [3,2-b]pyridin-4-amine] | > 1000 |
| > 1000 | > 1000 | CCCCc1nc2c(N)nc3ccsc3c2n1Cc1ccccc1CN1CCC(c2ccncc2)CC1 [Compound 219, 2-butyl-1-(2-((4-(pyridin-4-yl)piperidin-1-yl)methyl)benzyl)-1H-imidazo[4,5-d]thieno[3,2-b]pyridin-4-amine] | > 1000 |
| 12 | 260 | CCCCc1nc2c(N)nc3ccsc3c2n1CCCCCNCc1ccc(CO)cc1 [Compound 179, (4-(((5-(4-amino-2-butyl-1H-imidazo[4,5-d]thieno[3,2-b]pyridin-1-yl)pentyl)amino)methyl)phenyl)methanol] | 76 |
| 8.7 | > 1000 | CCCCc1nc2c(N)nc3ccsc3c2n1Cc1ccc(CNCCNC(=O)OC(C)(C)C)cc1 [Compound 160, tert-butyl (2-((4-((4-amino-2-butyl-1H-imidazo[4,5-d]thieno[3,2-b]pyridin-1-yl)methyl)benzyl)amino)ethyl)carbamate] | 32 |
| 85 | > 1000 | CCCCc1nc2c(N)nc3ccsc3c2n1Cc1ccc(CN2CCN(C(=O)OC(C)(C)C)CC2)cc1 [Compound 153, tert-butyl 4-(4-((4-amino-2-butyl-1H-imidazo[4,5-d]thieno[3,2-b]pyridin-1-yl)methyl)benzyl)piperazine-1-carboxylate] | 420 |
| > 1000 | > 1000 | CCCCc1nc2c(N)nc3ccsc3c2n1Cc1ccc(CO)o1 [Compound 253, (5-((4-amino-2-butyl-1H-imidazo[4,5-d]thieno[3,2-b]pyridin-1-yl)methyl)furan-2-yl)methanol] | > 1000 |
| > 1000 | > 1000 | CCCCc1nc2c(N)nc3ccsc3c2n1Cc1ccccc1CN1CCN(C(=O)OC(C)(C)C)CC1 [Compound 217, tert-butyl 4-(2-((4-amino-2-butyl-1H-imidazo[4,5-d]thieno[3,2-b]pyridin-1-yl)methyl)benzyl)piperazine-1-carboxylate] | > 1000 |

The remaining lines, values behind:

| SMILES | EC50 (TLR7) [nM] | EC50 (TLR8) [nM] | EC50 (PBMCs) [nM] |
| --- | --- | --- | --- |
| CCCCc1nc2c(N)nc3ccsc3c2n1Cc1ccccc1CN [Compound 216, 1-(2-(aminomethyl)benzyl)-2-butyl-1H-imidazo[4,5-d]thieno[3,2-b]pyridin-4-amine] | > 1000 | > 1000 | > 1000 |
| CCCCc1nc2c(N)nc3ccsc3c2n1Cc1ccccc1CN1CCNCC1 [Compound 218, 2-butyl-1-(2-(piperazin-1-ylmethyl)benzyl)-1H-imidazo[4,5-d]thieno[3,2-b]pyridin-4-amine] | > 1000 | > 1000 | > 1000 |
| CCCCc1nc2c(N)nc3ccsc3c2n1CCCCCN1CCNCC1 [Compound 182] | 24 | > 1000 | 160 |
| CCCCc1nc2c(N)nc3ccsc3c2n1Cc1nc(CN(CC)CC)cs1 [Compound 233, 2-butyl-1-((4-((diethylamino)methyl)thiazol-2-yl)methyl)-1H-imidazo[4,5-d]thieno[3,2-b]pyridin-4-amine] | 140 | 880 | 630 |
| CCCCc1nc2c(N)nc3ccsc3c2n1Cc1nc(CN2CCN(CCN3CCOCC3)CC2)cs1 [Compound 234, 2-butyl-1-((4-((4-(2-morpholinoethyl)piperazin-1-yl)methyl)thiazol-2-yl)methyl)-1H-imidazo[4,5-d]thieno[3,2-b]pyridin-4-amine] | 270 | > 1000 | > 1000 |
| CCCCc1nc2c(N)nc3ccsc3c2n1Cc1ccccc1CN1CCN(CCN2CCOCC2)CC1 [Compound 222, 2-butyl-1-(2-((4-(2-morpholinoethyl)piperazin-1-yl)methyl)benzyl)-1H-imidazo[4,5-d]thieno[3,2-b]pyridin-4-amine] | > 1000 | > 1000 | > 1000 |
| CCCCc1nc2c(N)nc3ccsc3c2n1Cc1nc(CN2CCNCC2)cs1 [Compound 242, 2-butyl-1-((4-(piperazin-1-ylmethyl)thiazol-2-yl)methyl)-1H-imidazo[4,5-d]thieno[3,2-b]pyridin-4-amine] | 150 | > 1000 | > 1000 |
| CCCCc1nc2c(N)nc3ccsc3c2n1Cc1nc(CNCc2cc[nH]c2)cs1 [Compound 231, 1-((4-((((1H-pyrrol-3-yl)methyl)amino)methyl)thiazol-2-yl)methyl)-2-butyl-1H-imidazo[4,5-d]thieno[3,2-b]pyridin-4-amine] | 110 | 580 | 920 |
